Patent US5602278A (priority 1994, dated 1997)
Entries after “also recorded” stand apart in the source; their conditions may differ.

Assays:
hypoxic cells = conditions: Wilson et al., 1992; cited from earlier work
[1] = test system: EMT6 mouse mammary carcinoma cells
[2] = In vitro metabolism by rat liver microsomes under hypoxic or oxic conditions
[3] = test system: CaNT murine adenocarcinoma; parameters: species or system CBA/Gy fTO mice; conditions: mouse

SMILES | ability to diffuse into the extravascular compartment of tumors (hypoxic cells) | selectivity for hypoxic cells (hypoxic cells) | effect of hypoxia and lowered pH on cytotoxicity [1] | effect of lowered extracellular pH on activity [1] | toxicity with reducing enzymes under hypoxia [1] | in vivo toxicity | dependence of rate of metabolism on amount of cyt P450 ([2]; hypoxia, NADPH 1 mM, microsomes 2.0-5.2 nmol cyt P450/ml) | metabolism ([2]; in air or in the presence of boiled microsomes) | metabolism with NADPH ([2]; in the presence of NADPH, microsomes, hypoxia) | major enzyme responsible for activation ([2]; microsomal bioreductive activation) | effect of CO on reductive metabolism ([2]; microsomes 2.9 nmol cyt P450/ml, NADPH 1 mM, hypoxia) | metabolism ([2]; microsomes and cofactors NADH or NADPH, under hypoxia) | conditions required for conversion to an activated alkylating species ([2]; rat liver microsomes, cofactors, inhibitors) | potentiation of in vivo cytotoxicity by hydralazine [3] | activity compared to radiation, with concomitant hydralazine ([3]; in vivo)
C[N+](C)([O-])CCCNc1c2ccccc2nc2cccc([N+](=O)[O-])c12 [SN 24030] | improved ability to diffuse into the extravascular compartment of tumors | approximately 1500 fold |  |  |  |  |  |  |  |  |  |  |  |  | 
O=C(O)CCCc1ccc(N(CCCl)OCCCl)cc1 [CHL-HD, 4-[p-(N-2-chloroethoxy N-2-chloroethylamino)phenyl] butanoic acid] |  |  | both hypoxia and lowered pH in the presence of reducing enzymes potentiate to cytotoxicity | enhance when the extracellular pH is lowered below the physiological 7.4 | greater toxicity with reducing enzymes under hypoxia | minimal in vivo toxicity | there is a relationship between the amount of cyt P450 in the metabolic reaction mixture and the rate of metabolism | very little if any metabolism | metabolism occurs more readily at lower concentrations of cofactor | appears to be cyt P450 | CO inhibits the ability of microsomes to metabolize CHL-HD | is metabolized | reducing enzymes, co-factors and hypoxia were needed to activate CHL-HD to an alkylating species; also recorded: requires hypoxia and reducing enzymes and cofactors | potentiated by the administration of hydralazine 5 min prior or 30 post; also recorded: potentiated by hydralazine | enhanced activity as compared to radiation
